Source: patent EP0280610B1, “Dipeptides, preparation process and use in dosing proteases” (SERBIO, priority 1987, dated 1992)

Key:
Protéine C bovine = assay: Hydrolysis rate of chromogenic substrates by activated bovine protein C (pNA release, OD at 405 nm); assay type: biochemical; conditions: compared with reference product A4; underlying results expressed in ΔOD/minute at 405 nm, TEA buffer pH 8,4
Text: (§1) L'activité des dipeptides suivant l'invention et des tripeptides consignés dans le tableau I a été étudiée sur la thrombine humaine, la plasmine humaine, le Facteur Xa humaine et la Protéine C bovine, les tripeptides A1-A4 étant les substrats de référence du commerce. La libération du marquer HR₁ (i.e. amine H₂NRʹ₁), qui est objectivée par la variation de OD pendant l'hydrolyse enzymatique des substrats, sert d'outil de comparaison.
(§2) La lecture de OD est en général effectuée à 300-470 nm, et plus précisément à 405 nm quand R₁ est pNA, pendant environ 5 minutes.
(§3) Les essais ont été réalisés sur appareil GILFORD 203 S pour automatiser la lecture des échantillons et standardiser leur traitement.
(§4) On prépare des solutions dans du sérum physiologique renfermant chacune un enzyme : thrombine humaine 3 UNIH/ml Facteur Xa humain 3,7 nkat/ml plasmine humaine 2,3 nkat/ml protéine C bovine activée 10µg/ml
(§5) On dissout chaque peptide à tester dans le l'eau à une concentration de 10 mg/ml.
(§6) 400 µl d'enzyme dilué au 1/2 dans du tampon TEA (pH 8,4) sont ajoutés à 200 µl de chacun des différents peptides à tester. On détermine les vitesses d'hydrolyse desdits substrats en suivant l'évolution de la libération de pNA. Cette évolution peut être suivie par la lecture de la varition de OD par unité de temps (ΔOD/minute) à 405 nm.

plasmine humaine = assay: Hydrolysis rate of chromogenic substrates by human plasmin (pNA release, OD at 405 nm); assay type: biochemical; conditions: compared with reference product A3; underlying results expressed in ΔOD/minute at 405 nm, TEA buffer pH 8,4
Text: as §1, §2, §3, §4, §5, §6

MM-L-4Hyp-L-Arg-pNA, H-TFA [EX 10]
sensibilité à la protéine C (Protéine C bovine): plus sensibles à la protéine C que le produit de référence A4 | sensibilité à la plasmine (plasmine humaine): plus sensible à la plasmine que le produit de référence A3
